Measured values as given in DBAASP.
In brackets after ≈: the same amount, converted by molar mass. Several values for one entry are separate records, joined by “and”; a condition that tells them apart may be missing. Identical values can stand only once. Each block holds one compound with its values, some of them ahead of it.

Key:
Assay in all cases: ≥ marks a high value that may be exact or a test limit, other limits are often not marked, values filed in µg/mL are converted to µM
[1] = test system: Acinetobacter baumannii ATCC 19606
[2] = test system: Aspergillus fumigatus ATCC 26430
[3] = test system: Enterococcus faecalis ATCC 19433
[4] = test system: Escherichia coli ATCC 25922
Escherichia coli D21 = test system: Escherichia coli D21
[5] = test system: Pseudomonas aeruginosa ATCC 27853
[6] = test system: Staphylococcus aureus II ATCC 6538P
[7] = test system: Listeria monocytogenes DBFIQ LM3
[8] = test system: Staphylococcus aureus DBFIQ S21
[9] = test system: Staphylococcus aureus BCRC 10780
[10] = test system: Streptococcus pneumoniae BCRC 10794
[11] = test system: Clavibacter michiganensis subsp. michiganensis DSM 46294
[12] = test system: Pectobacterium carotovorum subsp. carotovorum DSM 30168
[13] = test system: Pseudomonas corrugata DSM 7228
[14] = test system: Pseudomonas syringae pv. syringae DSM 10604
[15] = test system: Pseudomonas syringae pv. tomato DC3000
[16] = test system: Staphylococcus aureus 90857
[17] = test system: Xanthomonas vesicatoria DSM 50861
[18] = test system: Candida albicans ATCC 14053
Escherichia coli D31 = test system: Escherichia coli D31
[19] = test system: Klebsiella pneumoniae ATCC 13883
[20] = test system: Staphylococcus aureus ATCC 25923
[21] = test system: Enterococcus faecalis ATCC 29212
[22] = test system: Staphylococcus aureus ATCC 29213
[23] = test system: Staphylococcus epidermidis PIA 8400
[24] = test system: Escherichia coli ATCC 11775
[25] = test system: Escherichia coli ATCC 43827
Candida albicans 01U = test system: Candida albicans 01U
Candida albicans 38U = test system: Candida albicans 38U
Candida parapsilosis = test system: Candida parapsilosis
[26] = test system: Cryptococcus neoformans L26
[27] = test system: Cryptococcus neoformans L30
[28] = test system: Trichophyton mentagrophytes
Trichophyton rubrum = test system: Trichophyton rubrum
Bacillus cereus AS1.126 = test system: Bacillus cereus AS1.126
[29] = test system: Enterobacter cloacae CGMCC 1.58
[30] = test system: Enterococcus faecalis CGMCC 1.595
[31] = test system: Enterococcus faecium CGMCC 1.2334
Escherichia coli AS1.349 = test system: Escherichia coli AS1.349
[32] = test system: Klebsiella aerogenes CGMCC 1.876
[33] = test system: Klebsiella pneumoniae subsp. pneumoniae CGMCC 1.176
[34] = test system: Lactococcus lactis AS1.1690
[35] = test system: Pseudomonas aeruginosa CGMCC 1.860
[36] = test system: Staphylococcus aureus AS1.72

SMILES: CC(C)C[C@H](NC(=O)[C@H](CCCN=C(N)N)NC(=O)[C@H](CCCN=C(N)N)NC(=O)[C@H](CC(C)C)NC(=O)[C@H](CC(C)C)NC(=O)[C@H](CCCN=C(N)N)NC(=O)[C@H](CCCN=C(N)N)NC(=O)[C@H](CC(C)C)NC(=O)[C@H](CC(C)C)NC(=O)[C@H](CCCN=C(N)N)NC(=O)[C@H](CCCN=C(N)N)NC(=O)[C@H](CC(C)C)NC(=O)[C@H](C)NC(=O)[C@H](CC(=O)O)NC(=O)[C@@H](N)CC(=O)O)C(=O)O [DDALRRLLRRLLRRL]
MIC [1]: 75 µM and 100 µM
MIC [2]: 6.2 µM and 3.1 µM
MIC [3]: ≥ 100 µM
MIC [4]: 100 µM (≈ 194 µg/mL)
MIC (Escherichia coli D21): ≥ 50 µM
MIC [5]: 50 µM (≈ 96.8 µg/mL)
MIC [6]: ≥ 50 µM and 31 µM

SMILES: CC[C@H](C)[C@H](NC(=O)[C@H](CCCN=C(N)N)NC(=O)[C@@H](N)CC(C)C)C(=O)N[C@@H](CC(C)C)C(=O)N[C@@H](CCCN=C(N)N)C(=O)N[C@@H](CCCN=C(N)N)C(=O)N[C@@H](CC(C)C)C(=O)N[C@@H](CC(C)C)C(=O)N[C@@H](CCCN=C(N)N)C(=O)N[C@@H](CCCN=C(N)N)C(=O)N[C@@H](CC(C)C)C(=O)N[C@@H](Cc1ccccc1)C(N)=O [LRILRRLLRRLF]
MIC [11]: 3.08 µM (≈ 5 µg/mL)
MIC [12]: 6.15 µM (≈ 9.99 µg/mL)
MIC [13]: 1.54 µM (≈ 2.5 µg/mL)
MIC [14]: 6.15 µM (≈ 9.99 µg/mL)
MIC [15]: 0.615 µM (≈ 0.999 µg/mL)
MIC [16]: 6.25 µM (≈ 10.2 µg/mL)
MIC [17]: 3.08 µM (≈ 5 µg/mL)

SMILES: NC(=O)CC[C@H](NC(=O)[C@H](Cc1c[nH]c2ccccc12)NC(=O)[C@H](CCCN=C(N)N)NC(=O)[C@@H](N)CCCN=C(N)N)C(=O)N[C@@H](Cc1c[nH]c2ccccc12)C(=O)N[C@@H](CCCN=C(N)N)C(=O)O [RRWQWR]
MIC [21]: 44 µM (≈ 43.4 µg/mL)
MIC [24]: 22 µM (≈ 21.7 µg/mL)
MIC [4]: 22 µM (≈ 21.7 µg/mL)
MIC [25]: 5 µM (≈ 4.94 µg/mL)

SMILES: CC[C@H](C)[C@H](NC(=O)[C@H](CC(C)C)NC(=O)[C@H](CCC(=O)O)NC(=O)[C@H](CO)NC(=O)[C@H](CCCN=C(N)N)NC(=O)[C@@H](N)CO)C(=O)N[C@H](C(=O)N[C@@H](Cc1cnc[nH]1)C(=O)N[C@@H](CCC(N)=O)C(=O)N[C@@H](CCCN=C(N)N)C(N)=O)C(C)C [SRSELIVHQR]
MIC (Candida albicans 01U): ≥ 52.3 µM
MIC (Candida albicans 38U): 26.1 µM (≈ 32 µg/mL)
MIC (Candida parapsilosis): ≥ 209 µM
MIC [26]: ≥ 105 µM
MIC [27]: ≥ 209 µM
MIC [28]: ≥ 209 µM
MIC (Trichophyton rubrum): 26.1 µM (≈ 32 µg/mL)

SMILES: NC(N)=NCCC[C@H](NC(=O)[C@H](Cc1cnc[nH]1)NC(=O)[C@H](Cc1c[nH]c2ccccc12)NC(=O)[C@H](Cc1ccccc1)NC(=O)[C@H](CCCN=C(N)N)NC(=O)[C@H](CCCN=C(N)N)NC(=O)[C@@H](N)Cc1c[nH]c2ccccc12)C(=O)O [WRRFWHR]
MIC (Bacillus cereus AS1.126): 25 µM (≈ 28.6 µg/mL)
MIC [29]: ≥ 100 µM
MIC [30]: ≥ 50 µM
MIC [31]: 25 µM (≈ 28.6 µg/mL)
MIC (Escherichia coli AS1.349): 25 µM (≈ 28.6 µg/mL)
MIC [32]: ≥ 100 µM
MIC [33]: ≥ 100 µM
MIC [34]: ≥ 50 µM
MIC [35]: 25 µM (≈ 28.6 µg/mL)
MIC [36]: 25 µM (≈ 28.6 µg/mL)

Now from value to compound:

MIC [7]: 17.8 µM (≈ 32.1 µg/mL)
MIC [8]: 8.9 µM (≈ 16 µg/mL)
SMILES: CC[C@H](C)[C@H](NC(=O)[C@H](C)NC(=O)[C@@H](NC(=O)[C@H](C)NC(=O)CN)[C@@H](C)O)C(=O)N[C@@H](CCCCN)C(=O)N[C@@H](CCC(N)=O)C(=O)N[C@H](C(=O)N[C@@H](CCCCN)C(=O)N[C@@H](CCCCN)C(=O)N[C@@H](CC(C)C)C(=O)N[C@@H](Cc1ccccc1)C(=O)N[C@@H](CCCCN)C(=O)N[C@@H](CCCCN)C(=O)N[C@@H](CCCCN)C(=O)NCC(=O)NCC(N)=O)C(C)C [GATAIKQVKKLFKKKGG]

MIC [9]: ≥ 94.9 µM
MIC [10]: ≥ 94.9 µM
SMILES: CC[C@H](C)[C@H](NC(=O)[C@H](CCSC)NC(=O)[C@H](CCCCN)NC(=O)CNC(=O)[C@H](C)NC(=O)[C@H](Cc1cnc[nH]1)NC(=O)[C@H](Cc1ccccc1)NC(=O)[C@H](CC(C)C)NC(C)=O)C(=O)N[C@@H](Cc1cnc[nH]1)C(N)=O [LFHAGKMIH]

MIC [18]: 2.07 µM (≈ 8.47 µg/mL)
MIC (Escherichia coli D31): 4.23 µM (≈ 17.3 µg/mL)
MIC [19]: 4.23 µM (≈ 17.3 µg/mL)
MIC [5]: 8.64 µM (≈ 35.3 µg/mL)
MIC [20]: 8.64 µM (≈ 35.3 µg/mL)
SMILES: CC[C@H](C)[C@@H]1NC(=O)CNC(=O)[C@H](CCCCN)NC(=O)[C@H](CC(N)=O)NC(=O)[C@H](CCCNC(=N)N)NC(=O)[C@H](C(C)C)NC(=O)[C@@H](NC(=O)[C@H](CO)NC(=O)[C@@H](NC(=O)[C@@H]2CCCN2C(=O)[C@@H](N)CC(N)=O)C(C)C)CSSC[C@@H]2NC(=O)[C@H](CCCCN)NC(=O)[C@H](C(C)C)NC(=O)[C@H](C)NC(=O)[C@H](CCCNC(=N)N)NC(=O)CNC(=O)[C@H](C(C)C)NC(=O)[C@@H]3CSSC[C@H](NC1=O)C(=O)N[C@@H](C(C)C)C(=O)N1CCC[C@H]1C(=O)N[C@@H]([C@@H](C)CC)C(=O)N[C@@H](CCCNC(=N)N)C(=O)N[C@@H](CSSC[C@@H](C(=O)N[C@@H](CCCNC(=N)N)C(=O)N[C@@H](CCCCN)C(=O)N[C@@H](CCCCN)C(=O)O)NC2=O)C(=O)N1CCC[C@H]1C(=O)NCC(=O)N[C@@H](CO)C(=O)N[C@@H](CCSC)C(=O)N[C@@H](CCCCN)C(=O)N[C@@H](CCC(N)=O)C(=O)N[C@@H]([C@@H](C)CC)C(=O)NCC(=O)N[C@@H]([C@@H](C)O)C(=O)N3 [NPVSCVRNKGICVPIRCPGSMKQIGTCVGRAVKCCRKK]

MIC [21]: 186 µM (≈ 251 µg/mL)
MIC [4]: 23 µM (≈ 31 µg/mL)
MIC [5]: 23 µM and 46.8 µM
MIC [22]: 23 µM (≈ 31 µg/mL)
MIC [23]: 23 µM and 11.9 µM
SMILES: CC[C@H](C)[C@H](NC(=O)[C@H](CCCCN)NC(=O)[C@@H](NC(=O)[C@H](CCCN=C(N)N)NC(=O)[C@H](CCCN=C(N)N)NC(=O)[C@@H](N)CCCN=C(N)N)[C@@H](C)CC)C(=O)N[C@@H](CCCN=C(N)N)C(=O)N[C@@H](Cc1c[nH]c2ccccc12)C(=O)N[C@@H](Cc1ccc(O)cc1)C(N)=O [RRRIKIRWY]
